Test system: Peripheral Neuropathy in a Mouse Caused by Oxaliplatin
Assay: Von Frey test (0.16 g filament), peripheral neuropathy caused by oxaliplatin
Type: in vivo, Balb/c mice
Conditions: 6 mg/kg oxaliplatin + 100 mg/kg orally daily from Day 6 (therapy)
From the text: (§1) Six to seven-week-old female Balb/c mice were used for the tests as with Example 1. All the mice were acclimated for seven days after arrival. Then, the mice were grouped into the following four groups: a control group, a group receiving oxaliplatin, a group receiving D-threitol, and a group receiving oxaliplatin and D-threitol (a group receiving oxaliplatin+D-threitol). Each group consisted of five mice.
On Day 8 of acclimation, the mice in the group receiving oxaliplatin and the group receiving oxaliplatin+D-threitol were intraperitoneally administered with oxaliplatin at a dose of 6 mg/kg. This day was designated as the first day of the administration (Day 0). Thereafter, these mice were intraperitoneally administered with oxaliplatin at a daily dose of 6 mg/kg on Day 7 and Day 14.
The mice in the group receiving D-threitol and the group receiving oxaliplatin+D-threitol were orally administered with D-threitol at a dose of 5 mg/kg daily from Day 0.
The mice in the four groups described in (1) of the present example (Example 3) were placed in a cage, and the avoidance response frequency (score) was measured by pressing a filament with a bending force of 0.16 g against the back of the hind paw.
On Day 8 of acclimation, the mice in the group receiving oxaliplatin and the group receiving oxaliplatin+D-threitol were intraperitoneally administered with oxaliplatin at a dose of 6 mg/kg. This day was designated as the first day of the administration (Day 0). Thereafter, these mice were intraperitoneally administered with oxaliplatin at the same dose on Day 7 and Day 14 for a total of 3 doses.
The mice in the group receiving 100 mg/kg D-threitol were orally administered with D-threitol at a dose of 100 mg/kg daily from Day 0. The mice in the group receiving oxaliplatin+100 mg/kg D-threitol were orally administered with D-threitol at a dose of 100 mg/kg daily from Day 6 of administration.
For the mice in the four groups described in (1) of the present example (Example 4), the avoidance response frequency (score) was measured by pressing a filament with a bending force of 0.16 g against the back of the hind paw.
as §1, with “L-talitol,” for “D-threitol,”, “L-talitol” for “D-threitol”, “oxaliplatin+L-talitol).” for “oxaliplatin+D-threitol).”, “mice. […]” for “mice.”
The mice in the four groups described in (1) of the present example (Example 5) were placed in a cage, and the avoidance response frequency (score) was measured by pressing a filament with a bending force of 0.16 g against the back of the hind paw. […]

Row | SMILES | avoidance response score (from Day 12 onwards) | avoidance response score (from Day 15 onwards)
1 | OC[C@H](O)[C@H](O)[C@H](O)[C@@H](O)CO [L-talitol] | maintained a score clearly lower than that of the group receiving oxaliplatin | –
2 | OC[C@@H](O)[C@H](O)CO [D-threitol] | – | maintained a score clearly lower than that of the group receiving oxaliplatin
3 | OC[C@@H](O)[C@H](O)[C@@H](O)CO [xylitol] | maintained a score clearly lower than that of the group receiving oxaliplatin | –

Reference: US20240099989A1, “AGENT FOR PREVENTING OR IMPROVING PERIPHERAL NEUROPATHY” (KINKI UNIVERSITY, priority 2021, published 2024)
